Results reported in ChEMBL document CHEMBL4265913, “Role of p53 circuitry in tumorigenesis: A brief review” (Eur J Med Chem, 2018).

Assays:
PC-3 = assay: Growth inhibition of human PC3 cells harboring p53 deletion mutant after 4 days by WST8 assay; type: functional, cell-based; details: PC-3, 96 h
SH-SY5Y = assay: Antiproliferative activity against human SH-SY5Y cells after 72 hrs by XTT assay; type: functional, cell-based
[1] = Antiproliferative activity against human LAN5 cells after 72 hrs by XTT assay; type: functional, cell-based; details: LA-N-5, 72 h
SK-N-SH = assay: Antiproliferative activity against human SK-N-SH cells after 72 hrs by XTT assay; type: functional, cell-based
IMR-5 = assay: Antiproliferative activity against human IMR5 cells after 72 hrs by XTT assay; type: functional, cell-based; details: IMR-5, 72 h
IMR-32 = assay: Antiproliferative activity against human IMR32 cells after 72 hrs by XTT assay; type: functional, cell-based; details: IMR-32, 72 h
[2] = biological target: E3 ubiquitin-protein ligase Mdm2 (Homo sapiens, UniProt Q00987); assay: Binding affinity to recombinant human MDM2 (1 to 118 residues) expressed in Escherichia coli BL21 (DE3) assessed as reduction in tryptophan fluorescence by microscale thermophoresis method
E3 ubiquitin-protein ligase Mdm2, sequence (Q00987 whole entry, the tested form may be a part): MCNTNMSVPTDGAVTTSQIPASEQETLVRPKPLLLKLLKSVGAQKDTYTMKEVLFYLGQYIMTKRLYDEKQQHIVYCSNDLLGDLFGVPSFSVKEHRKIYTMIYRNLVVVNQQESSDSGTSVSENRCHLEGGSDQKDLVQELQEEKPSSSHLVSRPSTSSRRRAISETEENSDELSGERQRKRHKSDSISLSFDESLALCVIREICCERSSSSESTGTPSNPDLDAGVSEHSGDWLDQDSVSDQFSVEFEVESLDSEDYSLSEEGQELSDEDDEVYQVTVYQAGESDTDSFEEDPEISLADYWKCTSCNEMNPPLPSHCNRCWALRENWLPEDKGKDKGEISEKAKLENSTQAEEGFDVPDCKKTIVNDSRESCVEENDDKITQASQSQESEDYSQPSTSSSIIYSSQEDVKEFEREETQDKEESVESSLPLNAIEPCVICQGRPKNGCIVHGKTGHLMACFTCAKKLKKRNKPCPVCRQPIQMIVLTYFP

U2OS = assay: Antiproliferative activity against human U2OS cells after 72 hrs by MTT assay; type: functional, cell-based

Q: Which IC50 (PC-3) does the source give for `CN(C)C(=O)[C@@H]1N[C@H](CC(C)(C)C)[C@]2(C(=O)Nc3cc(Cl)ccc32)[C@H]1c1cccc(Cl)c1` here?
A: 22500 nM

Q: For `CC1(C)CCC2(CC1)N[C@H](C(=O)N[C@H]1CC[C@H](C(N)=O)OC1)[C@@H](c1ccnc(Cl)c1F)[C@@]21C(=O)Nc2cc(Cl)ccc21`, which IC50 (SH-SY5Y) is on record?
A: 17.7 nM

Q: What about the IC50 [1] of the same compound?
A: 44.1 nM

Q: What about the IC50 (SK-N-SH) of the same compound?
A: 21.9 nM

Q: And the IC50 (IMR-5)?
A: 25.7 nM

Q: What about the IC50 (IMR-32) of the same compound?
A: 52.6 nM

Q: Which Kd [2] does the source give for `CN1C(=O)C(Cc2ccc(Cl)cc2)=C(c2c[nH]c3cc(Cl)ccc23)[C@]1(O)Cc1ccc(Cl)cc1` here?
A: 500 nM

Q: For `Clc1ccc(C2N=C(c3ccccc3)c3cc(Cl)ccc3-n3cnnc32)cc1` (stereo not drawn), which IC50 (U2OS) is on record?
A: 4170 nM
